Reference: publication PMC3376652 (Journal of Medicinal Chemistry, 2012)
pIC50, pKd: −log10 of the molar value. Like-named read-outs stand apart in the source and are kept apart here. Marks after values point to notes of the source that are not given here.

What was measured:
[1] = system: 17b binding to monomeric core and full-length gp120; assay: SPR of 17b binding to small molecule:gp120 complexes; design: species or system HIV-1
[2] = system: recombinant HIV-1YU2 on Cf2Th-CCR5 cells; assay: Activation of viral infectivity in CD4-negative Cf2Th-CCR5 cells; assay type: cell-based; conditions: for Activation of Viral Infectivity: Cf2Th-CCR5 cells
[3] = system: amphotropic murine leukemia virus (A-MLV); assay type: cell-based; conditions: for pIC50: Murine leukemia virus, read-out: A-MLV IC50
[4] = biological target: T1, gp120 from the YU2 strain (Human immunodeficiency virus type 1 group M subtype B, UniProt P35961); assay: Isothermal titration calorimetry of binding to full-length gp120; design: species or system HIV-1; conditions: for surface efficiency index (S.E.I.): calculated from KD and molecular polar surface area; for binding efficiency index (B.E.I.): calculated from KD and molecular weight; for change in heat capacity of binding: calculated from the temperature dependence of the binding enthalpies; for −TΔS: calculated from ΔG = ΔH – TΔS
wild-type HIV-1YU2 virus [5] = assay type: cell-based; conditions: for pIC50: read-out: HIV-1, YU-2 IC50, Table 2, Cf2Th-CD4/CCR5 cells, mean ± SD
[6] = system: 42 HIV-1 clade B and C isolates; assay: Viral breadth: neutralization of HIV-1 Env-pseudoviruses in TZM-bl cells; assay type: cell-based; conditions: 42 HIV-1 strains (clades B and C); for neutralization breadth among the viral isolates tested: IC50 < 100 μM
S375Wgp120 YU2 virus = assay: Viral inhibition of the Phe43 cavity filling mutant virus; assay type: cell-based, HIV-1
Cf2Th-CD4-CCR5 cells = assay: Luminescent cell-based viability assay; design: species or system canine; conditions: 1 to 100 μM, 48 hours
[7] = system: recombinant HIV-1YU2 on Cf2Th-CCR5 cells; conditions: relative to 1, ref Schon et al.[49] and Madani et al.[44]; cited from earlier work
[8] = biological target: T1, gp120 from the YU2 strain; conditions: ITC, 25 °C, ref Schon et al.[49] and Madani et al.[44], cited from earlier work
wild-type HIV-1YU2 virus [9] = conditions: read-out: HIV-1, YU-2 IC50; Cf2Th-CD4/CCR5 cells, 10,000 RT units; ref Schon et al.[49] and Madani et al.[44]; cited from earlier work
[10] = Table 2, calculated from KD, 25 °C

| SMILES | effect on binding of 17b to gp120 [1] | entry enhancement of YU2 viruses into CD4-negative, CCR5-expressing cells (in words) [2] | Activation of Viral Infectivity ([2]; Table 2, relative to 4) | inhibition of entry of A-MLV control virus (specificity, in words) [3] | ΔH ([4]; Table 2, ITC, 25 °C) | ΔG [4, 10] | percent of isolates with IC50 < 10 μM [6] | change in heat capacity of binding [4] | Activation of Viral Infectivity [7] | ΔG [8] | ΔH [8] | further results |
| --- | --- | --- | --- | --- | --- | --- | --- | --- | --- | --- | --- | --- |
| N[C@H]1Cc2ccccc2[C@@H]1NC(=O)C(=O)Nc1ccc(Cl)c(F)c1 [(+)-6, N^1-(4-chloro-3-fluorophenyl)-N^2-[(1S,2S)-2-amino-2,3-dihydro-1H-inden-1-yl]-oxalamide] | enhance binding of 17b to both the monomeric core and full-length gp120 | enhanced viral entry in CD4-negative cells at levels comparable to those previously measured for 1–4 | 1.4 ± 0.5 (relative to 4) | inhibiting entry of the A-MLV control virus with a similar IC50 value | -15.4 kcal/mol | -7.9 kcal/mol |  |  |  |  |  |  |
| O=C(Nc1ccc(Cl)c(F)c1)C(=O)N[C@H]1c2ccccc2C[C@H]1O [(+)-9, N^1-(4-chloro-3-fluorophenyl)-N^2-[(1S,2R)-2-hydroxy-2,3-dihydro-1H-inden-1-yl]oxalamide] |  |  |  |  |  |  |  |  |  |  |  | inhibition of viral entry (in words, data not shown) (wild-type HIV-1YU2 virus [5]): weak inhibition of viral entry |
| N=C(N)N[C@H]1Cc2ccccc2[C@@H]1NC(=O)C(=O)Nc1ccc(Cl)c(F)c1.O=CO [(+)-12, N^1-(4-chloro-3-fluorophenyl)-N^2-[(1S,2S)-2-guanidino-2,3-dihydro-1H-inden-1-yl]-oxalamide formate] | enhance binding of 17b to both the monomeric core and full-length gp120 | no appreciable entry enhancement | 0.1 ± 0.0 (19)^j (relative to 4) | neither compound was found to inhibit entry of A-MLV | -14.9 kcal/mol | -9.0 kcal/mol | 57% | −398 ± 5 cal/(K × mol) |  |  |  | pIC50 (wild-type HIV-1YU2 virus [5]): 4.70; neutralization breadth among the viral isolates tested [6]: 100%; pIC50 [3]: < 4.00; sensitivity of YU2 S375Wgp120 virus to compound (S375Wgp120 YU2 virus): completely resistant; surface efficiency index (S.E.I.) [4]: 6.4; binding efficiency index (B.E.I.) [4]: 16.8; in vitro cytotoxicity, inhibition of cell growth (Cf2Th-CD4-CCR5 cells): did not demonstrate measurable inhibition of cell growth |
| N[C@@H]1Cc2ccccc2[C@H]1NC(=O)C(=O)Nc1ccc(Cl)c(F)c1 [(−)-6] | enhance binding of 17b to both the monomeric core and full-length gp120 | enhanced viral entry in CD4-negative cells at levels comparable to those previously measured for 1–4 | 1.0 ± 0.3 (relative to 4) | inhibiting entry of the A-MLV control virus with a similar IC50 value | -19.5 kcal/mol | -8.1 kcal/mol |  |  |  |  |  | pKd ([4]; KD, Table 2, ITC, 25 °C, PBS pH 7.4, 2% DMSO): 5.92; −TΔS ([4]; Table 2): +11.4 kcal/mol |
| N=C(N)N[C@@H]1Cc2ccccc2[C@H]1NC(=O)C(=O)Nc1ccc(Cl)c(F)c1.O=CO [(−)-12] | enhance binding of 17b to both the monomeric core and full-length gp120 | no appreciable entry enhancement | 0.0 ± 0.0 (4)^j (relative to 4) | neither compound was found to inhibit entry of A-MLV | -19.4 kcal/mol | -9.0 kcal/mol | 52% | −817 ± 15 cal/(K × mol) |  |  |  | pIC50 (wild-type HIV-1YU2 virus [5]): 4.70; neutralization breadth among the viral isolates tested [6]: 100%; pIC50 [3]: < 4.00; sensitivity of YU2 S375Wgp120 virus to compound (S375Wgp120 YU2 virus): completely resistant; −TΔS ([4]; Table 2): +10.4 kcal/mol; surface efficiency index (S.E.I.) [4]: 6.4; binding efficiency index (B.E.I.) [4]: 16.8 |
| CC1(C)CC(NC(=O)C(=O)Nc2ccc(Cl)cc2)CC(C)(C)N1 [Compound 1] |  |  |  |  |  |  | 12% |  | 1.0 | –7.4 kcal/mol | –24.5 kcal/mol | −TΔS ([8]; listed as NBD-556 (1)): +17.1 kcal/mol; pIC50 (wild-type HIV-1YU2 virus [9]): < 4.00 |
| CC1(C)CC(NC(=O)C(=O)Nc2ccc(Br)cc2)CC(C)(C)N1 [Compound 2] |  |  |  |  |  |  |  |  | 0.8 (relative to 1) | –7.7 kcal/mol | –22.8 kcal/mol | −TΔS ([8]; listed as NBD-557 (2)): +15.1 kcal/mol; pIC50 (wild-type HIV-1YU2 virus [9]): < 4.00 |
| CC1(C)CC(NC(=O)C(=O)Nc2ccc(Cl)c(F)c2)CC(C)(C)N1 [Compound 3] |  |  |  |  |  |  |  |  | 1.9 (relative to 1) | –8.3 kcal/mol | –20.8 kcal/mol | −TΔS ([8]; listed as JRC-I-191 (3)): +12.5 kcal/mol |
| CN1C(C)(C)CC(NC(=O)C(=O)Nc2ccc(Cl)c(F)c2)CC1(C)C [Compound 4] | enhance binding of 17b to both the monomeric core and full-length gp120 |  |  |  |  |  |  | −738 ± 36 cal/(K × mol) |  |  |  | Activation of Viral Infectivity ([2]; Table 1, relative to 3): 2.1 (relative to 3)^i; ΔH ([4]; Table 1, ITC, 25 °C): –19.7 kcal/mol; ΔG ([4]; Table 1, calculated from Kd, 25 °C): –8.8 kcal/mol; −TΔS ([4]; Table 1): +10.9 kcal/mol |
